Assay results reported in the supplement of paper PMC11451515.

System: NOMO1
Experiment: cell viability relative to DMSO control; higher = less cytotoxic
Conditions: 48 h
Outline: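 NOMO1 or SEM (500 cells/well) or P12-Ichikawa (1000 cells/well) leukemia cells were adapted for at least four passages in each medium. They were seeded in 1536-well plates (5 μl) and pin-dosed with library compounds in DMSO over an 11-point threefold series, 47 μM to 0.79 nM. CellTiter-Glo One luminescence was read after 48 h at 37°C. Viability is the per-plate percentage relative to DMSO wells, with cell-free wells as background.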

[1] = HPLM + 10% dialyzed FBS, 0.000781 µM
[2] = HPLM + 10% dialyzed FBS, 0.00234 µM
[3] = HPLM + 10% dialyzed FBS, 0.00702 µM
[4] = HPLM + 10% dialyzed FBS, 0.0211 µM
[5] = HPLM + 10% dialyzed FBS, 0.0632 µM
[6] = HPLM + 10% dialyzed FBS, 0.19 µM
[7] = HPLM + 10% dialyzed FBS, 0.569 µM
[8] = HPLM + 10% dialyzed FBS, 1.71 µM
[9] = HPLM + 10% dialyzed FBS, 5.12 µM
[10] = HPLM + 10% dialyzed FBS, 15.4 µM
[11] = HPLM + 10% dialyzed FBS, 46.1 µM
[12] = RPMI 5 mM glucose + 10% FBS, 0.000781 µM
[13] = RPMI 5 mM glucose + 10% FBS, 0.00234 µM
[14] = RPMI 5 mM glucose + 10% FBS, 0.00702 µM
[15] = RPMI 5 mM glucose + 10% FBS, 0.0211 µM
[16] = RPMI 5 mM glucose + 10% FBS, 0.0632 µM
[17] = RPMI 5 mM glucose + 10% FBS, 0.19 µM
[18] = RPMI 5 mM glucose + 10% FBS, 0.569 µM
[19] = RPMI 5 mM glucose + 10% FBS, 1.71 µM
[20] = RPMI 5 mM glucose + 10% FBS, 5.12 µM
[21] = RPMI 5 mM glucose + 10% FBS, 15.4 µM
[22] = RPMI 5 mM glucose + 10% FBS, 46.1 µM
[23] = RPMI 5 mM glucose + 10% dialyzed FBS, 0.000781 µM
[24] = RPMI 5 mM glucose + 10% dialyzed FBS, 0.00234 µM
[25] = RPMI 5 mM glucose + 10% dialyzed FBS, 0.00702 µM
[26] = RPMI 5 mM glucose + 10% dialyzed FBS, 0.0211 µM
[27] = RPMI 5 mM glucose + 10% dialyzed FBS, 0.0632 µM
[28] = RPMI 5 mM glucose + 10% dialyzed FBS, 0.19 µM
[29] = RPMI 5 mM glucose + 10% dialyzed FBS, 0.569 µM
[30] = RPMI 5 mM glucose + 10% dialyzed FBS, 1.71 µM
[31] = RPMI 5 mM glucose + 10% dialyzed FBS, 5.12 µM
[32] = RPMI 5 mM glucose + 10% dialyzed FBS, 15.4 µM
[33] = RPMI 5 mM glucose + 10% dialyzed FBS, 46.1 µM

| Structure (SMILES) | cell viability [1] | cell viability [2] | cell viability [3] | cell viability [4] | cell viability [5] | cell viability [6] | cell viability [7] | cell viability [8] | cell viability [9] | cell viability [10] | cell viability [11] | cell viability [12] | cell viability [13] | cell viability [14] | cell viability [15] | cell viability [16] | cell viability [17] | cell viability [18] | cell viability [19] | cell viability [20] | cell viability [21] | cell viability [22] | cell viability [23] | cell viability [24] | cell viability [25] | cell viability [26] | cell viability [27] | cell viability [28] | cell viability [29] | cell viability [30] | cell viability [31] | cell viability [32] | cell viability [33] |
| --- | --- | --- | --- | --- | --- | --- | --- | --- | --- | --- | --- | --- | --- | --- | --- | --- | --- | --- | --- | --- | --- | --- | --- | --- | --- | --- | --- | --- | --- | --- | --- | --- | --- |
| O=C(NC1CCNCC1)c1n[nH]cc1NC(=O)c1c(Cl)cccc1Cl | 114% | 110% | 123% | 128% | 126% | 127% | 112% | 23.5% | 7.29% | 5.85% | 3.89% | 112% | 110% | 110% | 104% | 112% | 115% | 111% | 33.9% | 9.78% | 7.73% | 3.45% | 116% | 116% | 115% | 113% | 117% | 107% | 98.1% | 35.8% | 7.61% | 7.43% | 3.85% |
| COc1cc(N2CCC(C(N)=O)CC2)ccc1Nc1nc(N)c(Cl)c(Nc2ccccc2[S+](=O)([O-])C(C)C)n1 | 85.6% | 79.1% | 99.3% | 98.3% | 84.8% | 96.5% | 99.6% | 87.1% | 66% | 46.7% | 2.93% | 91.9% | 83.5% | 94% | 89.9% | 89% | 96.4% | 92% | 91.2% | 75.5% | 65.9% | 2.25% | 83.9% | 94.2% | 90.9% | 80.1% | 96.4% | 93.8% | 89.6% | 80.4% | 60.7% | 54.1% | 4.26% |
| CN(C)Cc1ccc(-c2nc3cccc4c3n2CCNC4=O)cc1 | 91.1% | 99.5% | 115% | 116% | 124% | 107% | 109% | 121% | 129% | 112% | 99.4% | 87.2% | 108% | 94.7% | 103% | 98.3% | 102% | 111% | 106% | 97.2% | 103% | 104% | 98% | 102% | 90.8% | 110% | 115% | 119% | 110% | 116% | 126% | 124% | 118% |
| CN(C)CCOC(c1ccccc1)c1ccccc1 | 94.4% | 84% | 105% | 116% | 111% | 112% | 112% | 113% | 109% | 104% | 83.5% | 112% | 111% | 106% | 121% | 117% | 106% | 115% | 107% | 107% | 101% | 53.6% | 94.6% | 112% | 101% | 113% | 122% | 111% | 110% | 109% | 104% | 119% | 64.6% |
| Cc1ccc(NC(=O)c2ccc(CN3CCN(C)CC3)cc2)cc1Nc1nccc(-c2cccnc2)n1 | 95.2% | 105% | 114% | 116% | 110% | 116% | 105% | 122% | 104% | 95.4% | 109% | 90.6% | 103% | 92.3% | 112% | 120% | 99.6% | 114% | 111% | 104% | 103% | 103% | 96.2% | 100% | 111% | 101% | 105% | 103% | 110% | 94% | 115% | 104% | 117% |
| CCCCN(CCCC)CCC(O)c1cc2c(Cl)cc(Cl)cc2c2cc(C(F)(F)F)ccc12 (stereo not drawn) | 115% | 115% | 115% | 124% | 119% | 138% | 134% | 121% | 131% | 126% | 123% | 117% | 111% | 119% | 107% | 106% | 126% | 128% | 121% | 121% | 121% | 115% | 116% | 109% | 121% | 126% | 121% | 115% | 135% | 116% | 118% | 122% | 116% |
| Fc1ccc(C(c2ccc(F)cc2)N2CCN(C/C=C/c3ccccc3)CC2)cc1 | 115% | 123% | 144% | 135% | 117% | 121% | 104% | 103% | 105% | 112% | 95.9% | 112% | 111% | 106% | 123% | 113% | 114% | 107% | 107% | 108% | 115% | 104% |  |  |  |  |  |  |  |  |  |  |  |
| COc1cc2c(N3CCN(C(=O)Nc4ccc(OC(C)C)cc4)CC3)ncnc2cc1OCCCN1CCCCC1 | 68.3% | 89.2% | 85.9% | 88.7% | 83.3% | 87.7% | 112% | 94.2% | 95.2% | 47.4% | 41.2% | 73.1% | 71.7% | 84.7% | 74.5% | 79.4% | 83.8% | 86.3% | 77.5% | 75.4% | 40% | 67.3% | 79.3% | 80.9% | 75.4% | 85.8% | 80.9% | 74% | 89.7% | 93.7% | 85.5% | 43.5% | 55.3% |
